According to patent US9180163B2, “Parstatin peptides” (priority 2009, dated 2015):

Experiments:
[1] = system: corneal neovascularization in Sprague-Dawley rats; test: chemical burn-induced corneal neovascularization, image analysis; format: in vivo, rat; settings: 2×50 μg subconjunctival, day 7
Excerpt: Parstatin (1-41), hydrophobic parstatin (1-26) fragment and hydrophilic parstatin (24-41) fragment were used in an in vivo rat model of corneal neovascularization. In particular, chemical burn-induced corneal trauma was used to generate corneal neovascularization as a preclinical disease model simulating a plethora of corneal diseases associated with abnormal formation of new blood vessels. The cornea is normally an avascular tissue that can be stimulated to undergo pathological neoangiogenesis in response to mechanical or chemical injuries, pterygium, herpetic keratitis, etc. In this model, an inflammatory response is considered an important prerequisite for neovascularization. This model is widely accepted and is one of the most extensively studied models, which provides an in vivo environment to study this complex process with convenient access to the corneal tissue and the highly visible developing vasculature.
Pathogen-free male Sprague-Dawley rats (250-300 gr) were treated in accordance with the Association for Research in Vision and Ophthalmology Statement for the Use of Animals in Ophthalmic and Vision Research and the guidelines of the Animal Care and Use Committee at local University Medical School. […] The corneal neovascularization was assessed using a semiautomatic program, which was developed in MATLAB 7.5. […]

[2] = system: choroidal neovascularization in C57BL/6J mice; format: in vivo; settings: 10 μg intravitreal after laser and day 7; assessed day 14; vs vehicle (PBS or DMSO)
Description: Parstatin (1-41), hydrophobic parstatin (1-26) fragment and hydrophilic parstatin (24-41) fragment were used in an in vivo mouse model of choroidal neovascularization. In particular, laser photocoagulation-induced rupture of Bruch's membrane was used to generate choroidal neovascularization as a preclinical disease model for age-related macular degeneration. Pathogen-free C57BL/6J (4-5 week-old) mice were treated in accordance with the Association for Research in Vision and Ophthalmology Statement for the Use of Animals in Ophthalmic and Vision Research and the guidelines of the Animal Care and Use Committee at local University Medical School.
C57BL/6J (4-5 week-old) mice were anesthetized with ketamine hydrochloride (100 mg/kg body weight) and xylazine-(4 mg/Kg body weight) and the pupils were dilated with 1% tropicamide. Laser photocoagulation (75 μm spot size, 0.1 sec duration, 120 mW) was performed in the 9, 12, and 3 o'clock positions of the posterior pole of the retina with the slit lamp delivery system of an Oculight GL diode laser (Index, Mountain View, Calif.) and a handheld cover slip as a contact lens to view the retina. Production of a bubble at the time of laser, which indicates rupture of Bruch's membrane, is an important factor in obtaining CNV. Therefore, only burns in which a bubble was produced were included in the study. Two weeks after rupture of Bruch's membrane, anesthetized mice were perfused with 50 mg/ml fluorescein-labelled-dextran (2×10^6 average molecular weight, Sigma-Aldrich, St. Louis, Mo.). The eyes were then dissected and fixed in 10% Formalin for 3 hours and choroidal flat mounts were examined by fluorescence microscopy. Image-Pro Plus software (Media Cybernetics, Silver Spring, Md.) was used to measure the total area of CNV at each rupture site by personnel blinded as to study treatments and groups.
Intraocular injections of parstatin peptides were performed with a Harvard pump microinjection apparatus and pulled glass micropipets. […] Choroidal neovascularization was assessed 14 days after laser treatment.

Sequence	inhibition of corneal neovascularization [1] [%]	inhibition of choroidal neovascularization [2] [%]
TRARRPESKATNATLDPR (listed as Homo sapiens) [parstatin (24-41), 24-41 (18 amino acids) of human parstatin, hydrophilic fragment]	60	77
MGPRRLLLVAACFSLCGPLLSARTRA (listed as Homo sapiens) [parstatin (1-26)]	50	62
